These results are taken from US20170165361A1, “TREATMENT OF LYSOSOMAL DISORDERS (ANTI-TNF THERAPY)” (Oxford University Innovation Limited, priority 2014, published 2017).

Common to all, as to type: in vivo, mouse
The subject of assay [1] is Npc1−/− mice. The assay can be described thus: Survival of Npc1−/− mice (humane end point). The note with it: for effect on survival / lifespan (in words): Enbrel 200 μg/animal s.c. twice a week, Humira 20 mg/kg three times a week, Remicade 6.25 mg/kg once a week. The protocol: BALB/c mice with a mutation in the NIH allele of the Niemann Pick type Cl gene (NPCnih) were bred as heterozygotes to produce Npc1−/− (BALB/c npcnih/nih) and control genotypes (Pentchev et al., 1980). Breeding and treatment of mice were conducted as described previously (Smith et al., 2009). The humane end point of mice was defined as a loss of 10% weight within a 24 hour time frame. All procedures were conducted according to Animals (Scientific Procedures) Act 1986 under a valid Home Office License.
(§1) Enbrel® (Amgen, USA) was administered via subcutaneous injection (200 μg/animal; Koca et al., 2008) in phosphate-buffered saline (PBS) twice a week starting at […] of age (n=7). Control group animals (n=7) were administered equal volumes of PBS subcutaneously. Humira® was administered 20 mg/kg three times a week (doses converted from human doses based on differential binding coefficients against murine and human TNF) (n=4) and Remicade® 6.25 mg/kg once a week (Deveci et al., 2008) (n=5).
Upon treatment with […] Enbrel® for twice a week starting at 7 weeks of age, Npc1^−/− mice were weighed weekly until humane end point to monitor any possible effects exerted by drug treatment.

A short description of assay [2]: Body weight of Npc1−/− mice, weighed weekly. The following applies: for effect on body weight (in words): Enbrel 200 μg twice a week, Humira 20 mg/kg three times a week, Remicade 6.25 mg/kg once a week; for body weight relative to initial weight at week 7: p<0.010. The protocol:
as §1
Body weights of individual mice were recorded on a weekly basis. Tremor and locomotor analysis of both treated and control groups were conducted as described by Smith et al. (2009). The procedures are briefly detailed as follows:
Upon treatment with 200 μg Enbrel® for twice a week starting at 7 weeks of age, Npc1^−/− mice were weighed weekly until humane end point to monitor any possible effects exerted by drug treatment.

Assay [3] concerns Npc1−/− mice. Description: Open field rearing, manual count over 5 minutes (rearing and centre rearing). The note with it: for centre rearing count (no front-limb support) / rearing count (front limb support on side walls): 5 min; for centre rearing count (no front-limb support): Humira 20 mg/kg three times a week; for rearing activity vs. controls (in words): FIG. 4; for rearing count (front limb support on side walls): Remicade 6.25 mg/kg once a week. The protocol:
as §1
(§2) Spontaneous activity of each mouse was recorded weekly using both an automated activity monitor (AmLogger; Linton Instrumentation, UK) and manual counting (NPC mice have a jumping phenotype in late stages of disease that can be scored as rears in the automated system so manual counts were included for this reason). The activity monitor comprises an array of infrared beams to determine the activity and motility of the subject animal. After 5-minute acclimatization in the room, each mouse was placed in the ‘open-field’ (a plasticbox measuring 45×25×12 cm) with home cage bedding to be recorded for 5 minutes. A similar setup was used for the open field rearing study, where the number of times the mouse reared on its hind legs (either against the cage wall “rearing” or without support “centre rearing”) was counted manually for 5 minutes.
Activity levels of the mice (Npc1^−/−) were recorded and classified by either “rearing” (FIG. 4A; rearing sustained by front limb support on side walls of the open-field box) or “centre rearing” (FIG. 4B; rearing with no front-limb support). […] In particular, rearing activity was maintained in Enbrel®-treated mice until 10 weeks whilst mice in the control group were no longer able to rear without front limb support (1.71 rears vs. 0.00 rears; p=0.01).

Assay [4] has as its system Npc1−/− mice. The assay can be described thus: Locomotor activity, AmLogger automated activity monitor. The note with it: Enbrel 200 μg twice a week. The procedure: as §1, §2
In assay [5] the test system is Npc1−/− mice. The assay can be described thus: Gait analysis, CatWalk single paw parameters. The note with it: Enbrel treatment, FIG. 7. The procedure:
as §1
The CatWalk™ system (Noldus Information Technology, the Netherlands) was used for monitoring changes in movement patterns as indicative of any motor complications and to assess any gait improvement in response to treatment. Animals were subjected to CatWalk™ analysis biweekly, where a minimum of three ‘runs’ were collected per animal. The data collected were subsequently examined by CatWalk™ XT 10.0 software to produce a total of 177 inter-paw and intra-paw comparison parameters.
For this reason, it can be assumed that single paw parameters would reveal more sensitive indications of treatment benefits in the short time frame allowed by this acute disease model.

[6] abbreviates: 9 weeks, mean±SEM, Enbrel 200 μg twice a week, control 0.429±0.30.
The mark [7] stands for this setting: 10 weeks, Enbrel 200 μg twice a week, control 0.00.

Several values for one entry are separate records, joined by “and”; a condition that tells them apart may be missing. Equal entries are not always repeated. Entries after “also recorded” stand apart in the source; their conditions may differ.

With Etanercept [Enbrel], the “effect on survival / lifespan (in words)” value in assay [1] is on record as “did not cause any significant difference in lifespan”. In assay [1] (Enbrel 200 μg/animal twice a week starting at 7 weeks of age, vs. 11.72±0.59 weeks, p=0.4840), this substance displayed a lifespan of 11.26±0.09 weeks. The “body weight relative to initial weight at 7 weeks” value in assay [2] (200 μg Enbrel twice a week, time point not stated, vs. 87.46%, p=0.7270) was found to be 89.03%. Moreover, in assay [2], the “effect on body weight (in words)” value is listed as “did not cause any significant difference in body weights”. Also, the “centre rearing count (no front-limb support)” value in assay [3] (setting [6]) was 1.71±0.61 rears; in assay [3] (setting [7]), 1.71 rears and 1.71±0.57 rears. Also, the “rearing activity vs. controls (in words)” value in assay [3] (open field) is reported as “displayed a higher level of rearing activity than control mice”. Besides, the “time spent in rearing” value in assay [4] (8 weeks, 5 min recording, vs. 3.29±1.775, p=0.0447) was 16.86 ± 5.79 s. Moreover, the “time spent in an active state” value in assay [4] (9 weeks, 5 min recording, vs. 143.43±17.625, p=0.0497) turned out to be 208.14 ± 23.85 s. Moreover, in assay [4] (FIG. 6), the “activity parameters vs. vehicle treated control (in words)” value was “displayed higher activity levels; also recorded: induced higher levels of activity parameters”. In addition, the “single paw gait parameters (in words)” value in assay [5] was “beneficial effects”.
Take Adalimumab [Humira]: the “effect on survival / lifespan (in words)” value in assay [1] is listed as “Neither did Humira® or Remicade® impact mice survival”. Moreover, in assay [2], the “effect on body weight (in words)” value was “did not impact mice weight”. For the same substance, the “centre rearing count (no front-limb support)” value is 10.00±3.58 rears in assay [3] (8 weeks, mean±SEM, vs. 2.00±1.35, p=0.033); 8.25±2.84 rears in assay [3] (setting [6]); 0.00 rears in assay [3] (setting [7]). Besides, the “centre rearing vs. controls and other treatments (in words)” value in assay [3] (open field, FIG. 4B) was “more effective amongst the other treatments starting from 8 weeks; also recorded: sustained rearing activity beyond all control groups at later time points”.
With Infliximab [Remicade], in assay [1], the “effect on survival / lifespan (in words)” value is listed as “Neither did Humira® or Remicade® impact mice survival”. Further, the “effect on body weight (in words)” value in assay [2] is “caused significant weight loss at weeks 8 and 9”. In addition, the “body weight relative to initial weight at week 7” value in assay [2] (week 8, Remicade 6.25 mg/kg once a week, vs. 101.31%) turned out to be 89.11%; in assay [2] (week 9, Remicade 6.25 mg/kg once a week, vs. 97.16%) it was 80.84%. Besides, the “rearing count (front limb support on side walls)” value in assay [3] (8 weeks, mean±SEM, vs. 2.86±1.03, p=0.034) came out at 7.80±1.71 rears; in assay [3] (9 weeks, mean±SEM, vs. 2.00±2.52, p=0.039), 7.20±2.27 rears. The “rearing activity vs. controls (in words)” value in assay [3] (open field) is “sustained level of rearing activity starting from 7 weeks, higher than the two control groups (untreated and s.c. injected) and maintained up to 12 weeks”.
